# Earlier results in patent EP2335686A1, “An aqueous intravenous nanosuspension with reduced adverse effects” (LEK Pharmaceuticals d.d., priority 2009, dated 2011).
smiles,measurement,value
CC(C)c1cccc(C(C)C)c1O [propofol],aqueous solubility at room temperature,0.0164 µg/mL
